pKi: −log10 of the molar value. Each block holds one compound with its values, some of them ahead of it. Active and inactive are the calls of the source. No cut-off for these calls is given here.
Experiments:
[1] = biological target: T1, Protein-arginine deiminase type-4 (Homo sapiens, UniProt Q9UM07); experiment: Inhibition of full length recombinant human N-terminal GST-tagged PAD4 expressed in baculovirus infected Sf9 cells using benzoyl arginine ethylester as substrate preincubated for 30 mins followed by substrate addition measured after 30 mins by colorimetric assay
[2] = biological target: T2, Protein-arginine deiminase type-1 (Homo sapiens, UniProt Q9ULC6); experiment: Inhibition of human PAD1 using BAEE as substrate preincubated for 30 mins followed by substrate addition measured after 30 mins by colorimetric assay
T2 sequence (Q9ULC6 whole entry): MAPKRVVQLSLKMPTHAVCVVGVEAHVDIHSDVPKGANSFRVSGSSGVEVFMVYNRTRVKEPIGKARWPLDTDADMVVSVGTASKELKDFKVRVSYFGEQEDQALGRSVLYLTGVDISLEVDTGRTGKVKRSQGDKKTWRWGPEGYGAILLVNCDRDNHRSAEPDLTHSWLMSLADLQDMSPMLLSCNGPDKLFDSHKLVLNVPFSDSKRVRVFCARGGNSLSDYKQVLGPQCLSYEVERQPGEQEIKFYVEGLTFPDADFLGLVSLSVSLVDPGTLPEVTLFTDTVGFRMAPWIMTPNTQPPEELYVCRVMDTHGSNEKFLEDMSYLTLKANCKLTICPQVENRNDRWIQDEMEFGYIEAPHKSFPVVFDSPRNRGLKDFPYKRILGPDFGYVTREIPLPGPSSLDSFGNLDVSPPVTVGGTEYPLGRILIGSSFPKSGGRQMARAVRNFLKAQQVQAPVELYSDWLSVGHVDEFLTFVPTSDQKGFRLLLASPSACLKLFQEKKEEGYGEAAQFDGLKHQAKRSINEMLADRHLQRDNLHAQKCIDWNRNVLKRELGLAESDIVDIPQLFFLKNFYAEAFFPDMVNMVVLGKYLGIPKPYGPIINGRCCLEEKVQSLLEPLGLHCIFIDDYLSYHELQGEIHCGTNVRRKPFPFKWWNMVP

[3] = biological target: Protein-arginine deiminase type-2 (Mus musculus) (UniProt Q08642); experiment: Inhibition of full length recombinant mouse N-terminal GST-tagged PAD2 expressed in baculovirus infected Sf9 cells up to 10 mM using benzoyl arginine ethyl ester as substrate preincubated for 30 mins followed by substrate addition measured after 30 mins by colorimetric assay
[4] = biological target: T1, Protein-arginine deiminase type-4; experiment: Inhibition of full length recombinant human N-terminal GST-tagged PAD4 expressed in baculovirus infected Sf9 cells up to 10 mM using benzoyl arginine ethylester as substrate preincubated for 30 mins followed by substrate addition measured after 30 mins by colorimetric assay
[5] = biological target: T3, Protein-arginine deiminase type-1 (Homo sapiens) (UniProt Q9ULC6); experiment: Inhibition of human PAD1 up to 10 mM using benzoyl arginine ethylester as substrate preincubated for 30 mins followed by substrate addition measured after 30 mins by colorimetric assay
T3 sequence (whole entry): T2 sequence (Q9ULC6 whole entry)

[6] = biological target: Protein-arginine deiminase type-2 (Mus musculus, UniProt Q08642); experiment: Inhibition of full length recombinant mouse N-terminal GST-tagged PAD2 expressed in baculovirus infected Sf9 cells using benzoyl arginine ethyl ester as substrate preincubated for 30 mins followed by substrate addition measured after 30 mins by colorimetric assay
Mus musculus [7] = experiment: Antiinflammatory activity in MOG peptide/complete freund's adjuvant/pertussis toxin-induced C57BL/6 mouse autoimmune encephalomyelitis model assessed as improvement in physical disability at 100 mg/kg, ip administered once daily for 40 days measured daily during compound dosing; type: functional, organism-based
Mus musculus [8] = experiment: (§1) Antiinflammatory activity in MOG peptide/complete freund's adjuvant/pertussis toxin-induced C57BL/6 mouse autoimmune encephalomyelitis model assessed as reduction in accumulation of CD3 positive cells in brain at 100 mg/kg, ip administered once daily for 40 days measured post last dose; type: functional, organism-based
Mus musculus [9] = experiment: Antiinflammatory activity in MOG peptide/complete freund's adjuvant/pertussis toxin-induced C57BL/6 mouse autoimmune encephalomyelitis model assessed as reduction in accumulation of MAC3 positive cells in brain at 100 mg/kg, ip administered once daily for 40 days measured post last dose; type: functional, organism-based
[10] = Toxicity in MOG peptide/complete freund's adjuvant/pertussis toxin-induced C57BL/6 mouse autoimmune encephalomyelitis model assessed as death at 100 mg/kg, ip administered once daily for 40 days measured during compound dosing (reference value: 21%); type: organism-based; details: in vivo, read-out: Activity
Mus musculus [11] = experiment: as §1, with “inflammatory lesions” for “accumulation of CD3 positive cells”, “dose by hematoxylin and eosin/Luxol-fast blue staining based assay” for “dose”; type: functional, organism-based
Mus musculus [12] = experiment: Toxicity in MOG peptide/complete freund's adjuvant/pertussis toxin-induced C57BL/6 mouse autoimmune encephalomyelitis model assessed as change in body weight at 100 mg/kg, ip administered once daily for 40 days measured during compound dosing; type: organism-based; details: in vivo, 960 h
Mus musculus [13] = experiment: Toxicity in MOG peptide/complete freund's adjuvant/pertussis toxin-induced C57BL/6 mouse autoimmune encephalomyelitis model assessed as change in body weight at 50 mg/kg, ip administered once daily for 40 days measured during compound dosing; type: organism-based; details: in vivo, 960 h
[14] = Toxicity in MOG peptide/complete freund's adjuvant/pertussis toxin-induced C57BL/6 mouse autoimmune encephalomyelitis model assessed as death at 50 mg/kg, ip administered once daily for 40 days measured during compound dosing (reference value: 20%); type: organism-based; details: in vivo, read-out: Activity
Mus musculus [15] = experiment: (§2) Antiinflammatory activity in MOG peptide/complete freund's adjuvant/pertussis toxin-induced C57BL/6 mouse autoimmune encephalomyelitis model assessed as increase in myelin content at 100 mg/kg, ip administered once daily for 40 days measured post last dose by LFB /H and E staining based assay; type: functional, organism-based
Mus musculus [16] = experiment: as §2, with “activity” for “activity in”, “reduction” for “increase”, “scar tissue around blood vessels in brain” for “myelin content”, “LFB/H” for “LFB /H”; type: functional, organism-based
[17] = Elimination rate constant in C57BL/6 mouse brain at 100 mg/kg, ip administered as single dose by UPLC-MS analysis; type: ADME, organism-based
[18] = Elimination rate constant in C57BL/6 mouse serum at 100 mg/kg, ip administered as single dose by UPLC-MS analysis; type: ADME, organism-based
[19] = AUC (0 to 360 mins) in C57BL/6 mouse serum at 100 mg/kg, ip administered as single dose by UPLC-MS analysis; type: ADME, organism-based; set-up: time < 6 hr, dose 100 mg/kg, route intraperitoneal
Mus musculus [20] = experiment: Neuroprotective activity in CPZ-induced demyelination C57BL/6 mouse model assessed as increase in myelin content at 100 mg/kg, ip dosed daily for 6 weeks measured post last dose by LFB staining based immunohistochemical method; type: functional, organism-based
[21] = Half life in C57BL/6 mouse serum at 100 mg/kg, ip administered as single dose by UPLC-MS analysis; type: ADME, organism-based
[22] = Cmax in C57BL/6 mouse serum at 100 mg/kg, ip administered as single dose by UPLC-MS analysis; type: ADME, organism-based; set-up: dose 100 mg/kg, route intraperitoneal
[23] = Tmax in C57BL/6 mouse serum at 100 mg/kg, ip administered as single dose by UPLC-MS analysis; type: ADME, organism-based
[24] = Half life in C57BL/6 mouse brain at 100 mg/kg, ip administered as single dose by UPLC-MS analysis; type: ADME, organism-based
[25] = Cmax in C57BL/6 mouse brain at 100 mg/kg, ip administered as single dose by UPLC-MS analysis; type: ADME, organism-based; set-up: dose 100 mg/kg, route intraperitoneal
[26] = Tmax in C57BL/6 mouse brain at 100 mg/kg, ip administered as single dose by UPLC-MS analysis; type: ADME, organism-based
[27] = AUC (0 to 360 mins) in C57BL/6 mouse brain at 100 mg/kg, ip administered as single dose by UPLC-MS analysis; type: ADME, organism-based; set-up: dose 100 mg/kg, time < 6 hr, route intraperitoneal
Mus musculus [28] = experiment: Antiinflammatory activity in MOG peptide/complete freund's adjuvant/pertussis toxin-induced C57BL/6 mouse autoimmune encephalomyelitis model assessed as improvement in physical disability at 50 mg/kg, ip administered once daily for 40 days measured daily during compound dosing; type: functional, organism-based
Mus musculus [29] = experiment: Antiinflammatory activity in ip dosed MOG peptide/complete freund's adjuvant/pertussis toxin-induced C57BL/6 mouse autoimmune encephalomyelitis model assessed as improvement in physical disability administered once daily for 40 days measured daily during compound dosing; type: functional, organism-based

T1 sequence (Q9UM07 whole entry): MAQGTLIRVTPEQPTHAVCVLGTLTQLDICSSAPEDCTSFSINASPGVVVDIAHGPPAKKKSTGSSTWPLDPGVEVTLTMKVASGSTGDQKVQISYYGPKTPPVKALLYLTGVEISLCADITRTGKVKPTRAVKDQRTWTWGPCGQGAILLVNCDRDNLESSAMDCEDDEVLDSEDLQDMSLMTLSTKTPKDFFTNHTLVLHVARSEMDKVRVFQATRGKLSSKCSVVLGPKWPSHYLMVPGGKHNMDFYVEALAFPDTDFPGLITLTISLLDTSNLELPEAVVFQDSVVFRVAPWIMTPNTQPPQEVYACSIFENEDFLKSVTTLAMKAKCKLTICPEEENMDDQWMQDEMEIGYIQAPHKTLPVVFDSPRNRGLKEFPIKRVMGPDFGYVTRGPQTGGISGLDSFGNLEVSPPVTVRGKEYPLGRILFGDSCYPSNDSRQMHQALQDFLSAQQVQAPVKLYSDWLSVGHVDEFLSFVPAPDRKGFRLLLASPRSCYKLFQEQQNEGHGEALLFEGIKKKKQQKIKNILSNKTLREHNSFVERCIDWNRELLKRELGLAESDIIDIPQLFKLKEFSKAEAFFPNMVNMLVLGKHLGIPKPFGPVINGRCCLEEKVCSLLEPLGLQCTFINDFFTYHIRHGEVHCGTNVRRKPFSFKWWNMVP
Protein-arginine deiminase type-2 (Mus musculus), sequence (Q08642 whole entry): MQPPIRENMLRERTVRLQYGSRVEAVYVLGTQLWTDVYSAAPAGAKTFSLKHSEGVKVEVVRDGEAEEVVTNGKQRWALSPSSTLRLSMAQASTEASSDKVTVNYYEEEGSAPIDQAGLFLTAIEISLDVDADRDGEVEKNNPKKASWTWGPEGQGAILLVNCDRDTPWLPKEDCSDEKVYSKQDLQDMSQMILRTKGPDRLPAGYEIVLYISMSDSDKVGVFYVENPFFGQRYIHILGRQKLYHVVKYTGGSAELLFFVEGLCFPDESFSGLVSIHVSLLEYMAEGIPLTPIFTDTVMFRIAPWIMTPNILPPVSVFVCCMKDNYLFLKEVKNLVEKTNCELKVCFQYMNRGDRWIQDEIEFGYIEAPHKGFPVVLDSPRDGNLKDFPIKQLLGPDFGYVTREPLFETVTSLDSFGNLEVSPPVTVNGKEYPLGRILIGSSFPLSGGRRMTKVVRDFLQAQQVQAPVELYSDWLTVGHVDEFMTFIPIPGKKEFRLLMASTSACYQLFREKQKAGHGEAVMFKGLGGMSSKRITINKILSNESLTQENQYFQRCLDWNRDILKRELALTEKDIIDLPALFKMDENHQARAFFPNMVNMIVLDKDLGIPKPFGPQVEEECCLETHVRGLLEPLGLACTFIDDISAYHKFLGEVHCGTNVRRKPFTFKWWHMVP
Protein-arginine deiminase type-2, sequence (Q08642 whole entry): as above

SMILES: Cc1nccn1CCN1C(=O)NC(C)(C)C1=O
pKi [2]: 2.62 | inhibition [3]: inactive | inhibition [4]: inactive

SMILES: CC1(C)NC(=O)N(CCn2cncc2CO)C1=O
inhibition [3]: inactive | inhibition [4]: inactive | inhibition [5]: inactive

SMILES: Cc1cnc(C)n1CCN1C(=O)NC(C)(C)C1=O
inhibition [3]: inactive | inhibition [4]: inactive | inhibition [5]: inactive

SMILES: CC1(C)NC(=O)N(CCc2nnn[nH]2)C1=O
pKi [6]: 4.52 | pKi [2]: 3.42 | Activity (Mus musculus [7]): Active | Activity (Mus musculus [8]): Active | Activity (Mus musculus [9]): Active | mortality at 960 h [10]: 8% | Activity (Mus musculus [11]): Active | Activity (Mus musculus [12]): Non-Toxic

SMILES: CC1(C)NC(=O)N(CCn2cncn2)C1=O
inhibition [3]: inactive | inhibition [4]: inactive | inhibition [5]: inactive

SMILES: CC1(C)NC(=O)N(CN2CCNCC2)C1=O
pKi [6]: 3.75 | pKi [1]: 3.74 | pKi [2]: 3.35 | Activity (Mus musculus [7]): Active | Activity (Mus musculus [12]): Non-Toxic

SMILES: Cc1cn(CCN2C(=O)NC(C)(C)C2=O)cn1
inhibition [3]: inactive | inhibition [4]: inactive | inhibition [5]: inactive

SMILES: CC(C)c1nccn1CCN1C(=O)NC(C)(C)C1=O
inhibition [3]: inactive | inhibition [4]: inactive | inhibition [5]: inactive

SMILES: CC1(C)NC(=O)N(CCn2ccnc2)C1=O
pKi [6]: 2.34 | pKi [1]: 3.20 | Activity (Mus musculus [7]): Active | Activity (Mus musculus [13]): Non-Toxic | mortality at 960 h [14]: 29% | Activity (Mus musculus [8]): Active | Activity (Mus musculus [9]): Active | Activity (Mus musculus [15]): Active | Activity (Mus musculus [16]): Active | k el [17]: 0.000117 s⁻¹ | k el [18]: 0.000917 s⁻¹ | AUC(0-t) at 6 h [19]: 28000 ng·h/mL | Activity (Mus musculus [20]): Active | half-life [21]: 12.6 min | Cmax [22]: 79900 ng/mL | Tmax [23]: 5 min | half-life [24]: 99 min | Cmax [25]: 7.3 ng/mL | Tmax [26]: 45 min | AUC(0-t) at 6 h [27]: 12.3 ng·h/mL | inhibition [5]: inactive | Activity (Mus musculus [28]): inactive | mortality at 960 h [10]: 0% | Activity (Mus musculus [29]): Dose-dependent effect | Activity (Mus musculus [11]): Active | Activity (Mus musculus [12]): Non-Toxic

Now from value to compound:

pKi [1]: 2.84 | pKi [2]: 3.22
SMILES: CC1(C)NC(=O)N(CCN2CCOCC2)C1=O

pKi [1]: 2.33 | inhibition [3]: inactive | inhibition [5]: inactive
SMILES: CC1(C)NC(=O)N(CCN2CCCC2)C1=O

inhibition [3]: inactive | inhibition [4]: inactive | inhibition [5]: inactive
SMILES: CN1CCN(CCN2C(=O)NC(C)(C)C2=O)CC1

inhibition [3]: inactive | inhibition [4]: inactive | inhibition [5]: inactive
SMILES: CC1(C)NC(=O)N(CCn2ccnn2)C1=O

pKi [6]: 3.15 | inhibition [4]: inactive | inhibition [5]: inactive
SMILES: CC1(C)NC(=O)N(CCN2CCNCC2)C1=O

Source: ChEMBL document CHEMBL4028813, “Inhibitors of protein arginine deiminases and their efficacy in animal models of multiple sclerosis” (Bioorg Med Chem, 2017)
